In patent publication US20050020638A1, “Method of stabilizing lansoprazole” (priority 2003, published 2005):
Where two headings read alike, the source gives them in different places.

How the values were obtained:
[1] = Stability of stabilized vs. non-stabilized lansoprazole on storage (HPLC impurities and color); format: physicochemical; conditions: 40 °C, 75% humidity
Experimental: Chromatographic purity method of lansoprazole is detailed in the monograph in USP Forum Vol. 26 (5) [September-October 2000]. HPLC condition: Column C18 • Mobile phase: Gradient of triethylamine in water with acetonitrile • Flow: 0.8 ml/min • Detection: 285 nm Karl Fisher method for water determination is the USP method, 921. Ia, with the solvent: pyridine and ethylene glycol 9:1 as detailed in USP Forum Vol. 26 (5) [September-October 2000].

[2] = cited from earlier work
[3] = 1 month, lansoprazole of Example 2
[4] = 3 months, 'solvent free' lansoprazole of Example 3

SMILES	LNP-SO2 (sulfone derivative) after storage [1, 3] [%]	LNPS (sulfide derivative) after storage [1, 3] [%]	Total impurities after storage [1, 3] [%]	Color after storage [1, 4]	LNP-SO2 (sulfone derivative) after storage [1, 4] [%]	LNPS (sulfide derivative) after storage [1, 4] [%]	Total impurities after storage [1, 4] [%]	Color after storage [1, 3]	Color after storage ([2]; 4 months at 40 °C and 75% room humidity)	Color after storage ([2]; 4 months at 40 °C, absence of humidity)
Cc1c(OCC(F)(F)F)ccnc1C[S+]([O-])c1nc2ccccc2[nH]1 (stereo not shown) [Lansoprazole not stabilized with ammonia, 2-[[3-methyl-4-(2,2,2-trifluoroethoxy)-2-pyridyl]methyl]sulfinyl-1H benzimidazole]	0.04	0.03	0.15	Brownish	0.04	0.06	0.31			
Cc1c(OCC(F)(F)F)ccnc1C[S+]([O-])c1nc2ccccc2[nH]1 (stereo not shown) [Lansoprazole stabilized with ammonia, 2-[[3-methyl-4-(2,2,2-trifluoroethoxy)-2-pyridyl]methyl]sulfinyl-1H benzimidazole]	0.03		0.05	white	0.02	0.03	0.08	white		
Cc1c(OCC(F)(F)F)ccnc1C[S+]([O-])c1nc2ccccc2[nH]1 (stereo not shown) [lansoprazole, (2-[[[3-methyl-4-(2,2,2-trifluoro-ethoxy)-2-pyridinyl]methyl]sulfinyl]-1H-benzimidazole)]									pale brown	pale yellowish brown
